Reference: patent US10052340B2 (XIAMEN UNIVERSITY, priority 2012, dated 2018)

Biological target: T1, FXR L287T (Homo sapiens, UniProt Q96RI1, L301T)
T1 construct: the expression plasmid expressing full-length FXR (wt) or with mutations at the corresponding sites; expressed in transfected cells; host or cells: COS-7
T1 sequence (Q96RI1 1-472 isoform Q96RI1-2 L287T): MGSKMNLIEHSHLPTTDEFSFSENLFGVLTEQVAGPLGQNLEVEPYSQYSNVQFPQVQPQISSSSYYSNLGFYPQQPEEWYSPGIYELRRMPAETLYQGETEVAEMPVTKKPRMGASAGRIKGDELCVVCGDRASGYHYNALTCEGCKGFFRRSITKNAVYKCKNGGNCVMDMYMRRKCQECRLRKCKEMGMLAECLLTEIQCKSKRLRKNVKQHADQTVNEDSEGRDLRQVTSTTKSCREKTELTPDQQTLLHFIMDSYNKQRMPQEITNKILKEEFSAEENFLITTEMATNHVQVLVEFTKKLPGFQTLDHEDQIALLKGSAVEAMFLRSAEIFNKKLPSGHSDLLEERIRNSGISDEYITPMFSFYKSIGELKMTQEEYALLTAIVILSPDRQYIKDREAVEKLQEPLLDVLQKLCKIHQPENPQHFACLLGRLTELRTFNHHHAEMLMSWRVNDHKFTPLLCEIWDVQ
Assay: Reporter gene analysis with FXR point mutant L287T in COS-7 cells
Type: cell-based
Settings: COS-7, EcRE reporter, vs wild-type FXR, FIG. 5
Procedure: (2) The expression vector of FXR with point mutations at key binding sites is obtained. Quick-Change site-directed mutagenesis kit (Stratagene) is used for mutation, and the mutation reaction system is as follows: wild-type plasmid pCMX-FXR (50 ng) of 0.5 μl, mutation primer (100 μM) of 0.2 μl, pfu DNA polymerase (Invitrogen) (2 U) of 1 μl, 10 mM dNTPs of 1 μl, 10× PCR buffer of 5 μl, and ddH2O of 43 μl. PCR procedures are performed as follows: 94° C. for 2 min; 94° C. for 30 s, 55° C. for 1 min, 72° C. for 7 min, 15 cycles. 20 μl PCR product is digested with Dpn I […], followed by taking and transforming 2 μl digestion product into E. coli Trans 109 competent cells, ice bath for 30 min, and heat shock at 42° C. for 30 s. 250 μl of LB liquid medium without antibiotics is added, and preshaken at 225 rpm at 37° C. for 40 min, followed by taking 150 μl of products, spreading same on LB solid medium plates with ampicillin at 100 μg/ml and culturing them at 37° C. overnight. On the next day, the single colony is picked out and placed in 2 ml LB liquid medium containing ampicillin at 100 μg/ml, and cultured at 37° C. overnight. Plasmid extraction is performed on the shaken bacterial solution using Qiagen MiniPrep Plasmid Minipreparation Kit. The plasmid is identified by sequencing.

For `CC[C@H](C)[C@H]1O[C@]2(CC[C@@H]1C)C[C@@H]1C[C@@H](C/C=C(\C)C(O[C@H]3C[C@H](OC)C(O[C@H]4C[C@H](OC)[C@@H](O)[C@H](C)O4)[C@H](C)O3)[C@@H](C)/C=C/C=C3\CO[C@@H]4[C@H](O)C(C)=CC(C(=O)O1)[C@]34O)O2` (stereo partly shown) [ivermectin], the “transcriptional activity of FXR mutant L287T” value was “significantly increasing”.
